This passage reports TGI and GI50 results from PubChem BioAssay (NCI).

Molecules are shown by their SMILES.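 How tested: cells in 96-well plates exposed to compound for 48 hours at five concentrations. GI50 = concentration required for 50% inhibition of growth. TGI: concentration producing complete growth inhibition.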

Test systems include EKVX NSCLC; MCF7 breast; KM12 colon; MDA-N; OVCAR-3 ovarian; SK-OV-3 ovarian; NCI-H226 lung; NCI-H522 lung.
Assay in all cases: DTP human tumour cell line panel, 48 h

As to `N#Cc1nc2cc(Cl)ccc2nc1N1CCN(c2ccc([N+](=O)[O-])cc2)CC1`, the TGI with EKVX NSCLC, with MCF7 breast, in the assay on KM12 colon, with MDA-N, in the assay on OVCAR-3 ovarian and in the assay with SK-OV-3 ovarian was more than 100 µM in each case.
For `CN(Cc1cnc2nc(N)nc(N)c2n1)c1ccc(C(=O)NC23CC4CC(CC(C4)C2)C3)cc1`, the TGI (in general, the concentration giving total growth inhibition) in the assay with NCI-H226 lung came to 27.3 µM; in the assay on EKVX NSCLC it was 32.5 µM; in the assay on MCF7 breast, 23.6 µM; in the assay on KM12 colon it was 24.8 µM; with OVCAR-3 ovarian, 30.5 µM; with SK-OV-3 ovarian, 31.9 µM.
As to `NCCCN(CCCCN(CCCN)C(=O)OCc1ccccc1)C(=O)OCc1ccccc1`, the TGI in the assay on NCI-H226 lung was more than 100 µM; in the assay on EKVX NSCLC it was more than 100 µM; in the assay with MCF7 breast, 77.7 µM; in the assay with KM12 colon it was more than 100 µM; in the assay on NCI-H522 lung, 85.4 µM; in the assay with OVCAR-3 ovarian it was more than 100 µM. The same molecule gave a TGI with SK-OV-3 ovarian of more than 100 µM.
On to `C#CC(O)(c1nc2ccccc2s1)c1nc2ccccc2s1`, for which the TGI is 57.5 µM in the assay on EKVX NSCLC; 52.9 µM in the assay on MCF7 breast; more than 100 µM in the assay with KM12 colon; 57.4 µM with MDA-N; 39.7 µM with NCI-H522 lung; 40.8 µM in the assay on OVCAR-3 ovarian.
With `CN1CCN(Cc2c[nH]c3c2C(=O)c2c(c(O)c4ccccc4c2O)C3=O)CC1`, the GI50 (in general, the concentration at which growth is held to half of that of the control) in the assay with NCI-H226 lung was 16.8 µM; in the assay on EKVX NSCLC it was 13.1 µM; with MCF7 breast, 5.15 µM; with KM12 colon, 3.46 µM; in the assay with NCI-H522 lung, 14.1 µM; in the assay on OVCAR-3 ovarian, 11.2 µM. Also, the GI50 in the assay on SK-OV-3 ovarian is 28.4 µM. Also, the TGI in the assay on NCI-H226 lung worked out at 36.5 µM; in the assay on EKVX NSCLC, 26.7 µM; in the assay on MCF7 breast it was 17.7 µM; with KM12 colon, 15.2 µM; in the assay with NCI-H522 lung, 33.8 µM; with OVCAR-3 ovarian, 33.2 µM. The molecule further had a TGI in the assay on SK-OV-3 ovarian of 55.2 µM.
With `N#CC1(C#N)C(C#N)(C#N)C1(C#N)C(N)=O`, the TGI in the assay on NCI-H226 lung, in the assay on EKVX NSCLC, in the assay with MCF7 breast, in the assay on KM12 colon, in the assay on MDA-N and with NCI-H522 lung was more than 100 µM each time. Further, in the assay with SK-OV-3 ovarian, the TGI was more than 100 µM.
For `CCc1cccc2c3c([nH]c12)-c1ccccc1NC(=O)C3`, the total growth inhibition concentration (TGI) in the assay with NCI-H226 lung, in the assay with EKVX NSCLC, in the assay on MCF7 breast, in the assay with KM12 colon, with OVCAR-3 ovarian and with SK-OV-3 ovarian was more than 100 µM throughout.
With `COc1ccc(-n2c(=O)c3[nH]c(=S)[nH]c3n(-c3ccc(OC)cc3)c2=S)cc1`, the TGI in the assay with NCI-H226 lung, in the assay on EKVX NSCLC, in the assay with MCF7 breast, with KM12 colon, with NCI-H522 lung and with OVCAR-3 ovarian was more than 100 µM each time. The TGI with SK-OV-3 ovarian was more than 100 µM.
Take `ClC(Cl)(Cl)C1CCOC1n1nnc2ccccc21` (configuration not stated): the TGI with NCI-H226 lung, in the assay with EKVX NSCLC, in the assay with MCF7 breast, in the assay on MDA-N, in the assay on NCI-H522 lung and in the assay with OVCAR-3 ovarian was more than 100 µM each time. The molecule also showed a TGI with SK-OV-3 ovarian of more than 100 µM.
On to `Cn1nc2ccc(Nc3cc(=O)[nH]c4ccc5nn(C)nc5c34)cc2n1`, for which the TGI in the assay on NCI-H226 lung, in the assay on EKVX NSCLC, with MCF7 breast, with KM12 colon, in the assay with NCI-H522 lung and in the assay with OVCAR-3 ovarian was more than 100 µM each time. In addition, the TGI in the assay with SK-OV-3 ovarian was more than 100 µM.
On to `CCOC(=O)c1ccc(Nc2nc3ccccc3nc2-c2cccs2)cc1`, for which the total growth inhibition concentration (TGI) is more than 100 µM with NCI-H226 lung; more than 100 µM with EKVX NSCLC; more than 100 µM in the assay with MCF7 breast; more than 100 µM with KM12 colon; more than 100 µM in the assay on MDA-N; 80.7 µM with NCI-H522 lung. Further, in the assay with OVCAR-3 ovarian, the TGI is more than 100 µM.
As to `COc1ccc(C2C3=C(N=C4SC(C(C)=O)=C(C)N42)c2ccccc2CC3)cc1` (configuration not stated), the TGI in the assay with NCI-H226 lung, with MCF7 breast, with KM12 colon, with MDA-N, in the assay on OVCAR-3 ovarian and with SK-OV-3 ovarian was more than 100 µM in each case.
With `c1nc(NCCc2cnc[nH]2)c2[nH]cnc2n1`, the TGI with NCI-H226 lung, in the assay with EKVX NSCLC, with KM12 colon, with MDA-N, in the assay with NCI-H522 lung and in the assay with OVCAR-3 ovarian was more than 100 µM each time. The TGI in the assay on SK-OV-3 ovarian was more than 100 µM.
As to `O=c1c2cc(C(F)(F)F)ccc2sc2c(NCCCNCCO)nc3ccccc3c12`, in the assay on KM12 colon, the GI50 was 1.62 µM and the TGI amounted to 3.17 µM. Further, in the assay with OVCAR-3 ovarian, the GI50 is 1.68 µM and the TGI was found to be 3.17 µM.
Consider `O=C(COc1ccc(OCC(=O)N2C(=O)CC(=O)N(c3ccc(Cl)cc3)C2=S)cc1)N1C(=O)CC(=O)N(c2ccc(Cl)cc2)C1=S`, for which the TGI with NCI-H226 lung is 85.7 µM; with EKVX NSCLC it was more than 100 µM; in the assay with MCF7 breast, more than 100 µM; with KM12 colon, 41.6 µM; in the assay with MDA-N it was 97.2 µM; with NCI-H522 lung it was 53.8 µM. The molecule also registered a TGI in the assay with SK-OV-3 ovarian of more than 100 µM.
Consider `COc1ccc(C#Cn2nnc3ccccc32)cc1`, for which the TGI with NCI-H226 lung, in the assay on EKVX NSCLC, in the assay with MCF7 breast, with KM12 colon, in the assay on MDA-N and in the assay with NCI-H522 lung was more than 100 µM each time. The molecule also gave a TGI in the assay on OVCAR-3 ovarian of more than 100 µM.
On to `CC1CC[C@@]2(OC1)O[C@H]1[C@H](O)[C@H]3[C@@H]4CC[C@H]5C[C@@H](OC6OC(CO)C(OC7OC(CO)C(O)C(OC8OCC(O)C(O)C8O)C7OC7OC(CO)C(O)C(O)C7OC7OC(CO)C(O)C(O)C7O)C(O)C6O)[C@H](O)C[C@]5(C)[C@H]4CC[C@]3(C)[C@H]1[C@@H]2C` (some centres not stated), for which the TGI in the assay with NCI-H226 lung was more than 10 µM; with EKVX NSCLC, more than 10 µM; in the assay on MCF7 breast, 7.71 µM; in the assay on KM12 colon it was more than 10 µM; in the assay with MDA-N it was more than 10 µM; in the assay on NCI-H522 lung, 6.87 µM. This molecule also came in with a concentration for total growth inhibition (TGI) in the assay with OVCAR-3 ovarian of more than 10 µM.
Take `Cc1cc2[nH]c3c(C#N)c(-c4ccccc4)c(N=Nc4ccc(F)cc4)c(=O)n3c2cc1C`: the TGI was more than 100 µM in the assay on NCI-H226 lung; more than 100 µM with EKVX NSCLC; more than 100 µM in the assay on MCF7 breast; more than 100 µM with MDA-N; more than 100 µM with NCI-H522 lung; 39.8 µM in the assay with OVCAR-3 ovarian. This molecule returned a TGI in the assay with SK-OV-3 ovarian of more than 100 µM.
Take `Fc1cccc(F)c1C1SCc2nc3cc(Cl)c(Cl)cc3n21` (configuration not stated): the TGI with EKVX NSCLC, in the assay on MCF7 breast, in the assay with KM12 colon, in the assay with MDA-N, in the assay with NCI-H522 lung and with OVCAR-3 ovarian was more than 100 µM throughout. Further, the TGI in the assay on SK-OV-3 ovarian was more than 100 µM.
For the molecule `COC(=O)C1CC2(C)C=CC1N(C(=O)OCc1ccccc1)C2` (configuration not stated), the TGI with NCI-H226 lung, in the assay with EKVX NSCLC, with MCF7 breast, in the assay on KM12 colon, with NCI-H522 lung and in the assay on OVCAR-3 ovarian was more than 100 µM in each case. Moreover, the TGI in the assay with SK-OV-3 ovarian was more than 100 µM.
Consider `C1=NCCNCCNCCN=Cc2ccc(cc2)OCc2cccc(n2)COc2ccc1cc2`, for which the TGI in the assay on NCI-H226 lung, in the assay with EKVX NSCLC, with MCF7 breast, in the assay with KM12 colon, in the assay with MDA-N and in the assay with OVCAR-3 ovarian was more than 100 µM each time. Besides, the total growth inhibition concentration (TGI) in the assay on SK-OV-3 ovarian was more than 100 µM.
With `O=P1(N2CCOCC2)OCCO1`, the TGI in the assay with EKVX NSCLC, with MCF7 breast, in the assay on KM12 colon, with MDA-N and in the assay on NCI-H522 lung was more than 100 µM each time.
Take `O=C1c2cc(Cc3ccccc3)c(=O)c(Cc3ccccc3)cc2C(=O)c2cc(Cc3ccccc3)c(=O)c(Cc3ccccc3)cc21`: the TGI with NCI-H226 lung, with EKVX NSCLC, in the assay with MCF7 breast, in the assay on KM12 colon, in the assay with MDA-N and with NCI-H522 lung was more than 100 µM in each case. Also, in the assay on OVCAR-3 ovarian, the TGI is more than 100 µM.
Consider `COC(C/C(=C/CO[Si](C(C)C)(C(C)C)C(C)C)C(=O)N(COCC[Si](C)(C)C)c1ccccc1I)OC`, for which the TGI in the assay with NCI-H226 lung was more than 100 µM; in the assay with KM12 colon, more than 100 µM; in the assay on MDA-N, more than 100 µM; in the assay on OVCAR-3 ovarian, 46 µM; with SK-OV-3 ovarian, more than 100 µM.
As for `Cc1cc(C)c2c(c1)CC1(Cc3cc(C)c(C)cc3C1=O)C2=O` (configuration not stated), the TGI in the assay on NCI-H226 lung, with EKVX NSCLC, in the assay with MCF7 breast, in the assay with KM12 colon, with NCI-H522 lung and with OVCAR-3 ovarian was more than 100 µM each time.
Regarding `Cc1c(CNc2ccc(C(=O)NC(CCCNC(=O)c3ccccc3C(=O)O)C(=O)O)cc2)cnc2nc(N)nc(N)c12` (configuration not stated), the GI50 with NCI-H226 lung was 0.00248 µM; in the assay on EKVX NSCLC, 0.0834 µM; in the assay with NCI-H522 lung, 0.00428 µM; in the assay with SK-OV-3 ovarian, more than 100 µM. Besides, the TGI in the assay with NCI-H226 lung is 2.91 µM; with EKVX NSCLC, more than 100 µM; with OVCAR-3 ovarian it was more than 100 µM; in the assay with SK-OV-3 ovarian it was more than 100 µM.
